Among the data in PubChem BioAssay AID493191 (Broad Institute, 2011) are AC50 values, retold here.

The experiment concerns MALME3 melanoma viability, CellTiter-Glo luminescence, 24 h. The experiment can be described thus: MALME3 melanoma cell viability loss, dose response, orthogonal assay for MITF inhibitor project, CellTiter-Glo, cherry-picked (AID 493191). (Cellular ATP, detected with luciferase, serves as a proxy for viable cell number.)
As a reminder, the AC50 is the concentration at which the activity in the assay is half-maximal. As for `COC(=O)CCS(=O)(=O)c1nc(-c2ccccc2)cc(C(F)(F)F)n1`, the concentration at half-maximal activity (AC50) is 14.9 µM. On to `Cc1ccc(NC(=O)c2cc(N3C(=O)C=CC3=O)ccc2N2CCOCC2)cc1`, for which the AC50 is 10.1 µM. Consider `O=C(C#Cc1ccccc1)c1cccc([N+](=O)[O-])c1`, for which the AC50 is 10.8 µM. As for `Cc1ccc(NC(=O)CCl)cc1S(=O)(=O)N1CCCCCC1`, the AC50 is 18.1 µM. For `CS(=O)(=O)N1CCN(c2ccc(NC(=O)c3ccc([N+](=O)[O-])o3)cc2)CC1`, the half-maximal activity concentration (AC50) is 16.7 µM. As to `CC1C/C(=C\c2cccnc2)C(=O)/C(=C/c2cccnc2)C1` (centres undefined), the half-maximal activity concentration (AC50) is 3.9 µM. Take `CCCOCc1ccc(O)c2ncccc12`: the concentration at half-maximal activity (AC50) is 32.2 µM.

On to `Cc1cccc(NC2=C(NC(=O)c3ccccc3)C(=O)c3ccccc3C2=O)c1`, for which the AC50 was 25.3 µM. Consider `N#CCc1ccc(NC(=O)/C=C/c2ccc([N+](=O)[O-])o2)cc1`, for which the concentration at half-maximal activity (AC50) is 10.4 µM.

For `Oc1cc(NCCN2CCOCC2)cc2cccnc12`, the AC50 was 24.6 µM.

Take `O=C(CNC(=O)c1ccccc1)N/N=C/c1ccc([N+](=O)[O-])s1`: the AC50 was 26.2 µM. With `CN(C)CC1CC/C(=C\c2ccc(O)cc2)C1=O` (centres undefined), the AC50 was 25.9 µM. Then `CC1CCC(C(C)C)C(OC(=O)Cn2c(-c3ccc(Cl)cc3)[n+](C)c3ccccc32)C1` (centres undefined), with 11.7 µM; and `COc1ccc(-c2nn(-c3ccccc3)cc2/C=N/N=C(N)N)cc1OC`, with 21.9 µM. Consider `CC1CCN(CC(CS(=O)(=O)c2ccc([N+](=O)[O-])cc2)N2CCC(C)CC2)CC1` (centres undefined), for which the AC50 is 18.9 µM.

As to `O=C(N/N=C/c1ccc([N+](=O)[O-])o1)c1ccccc1-n1cccc1`, the concentration at half-maximal activity (AC50) is 32.1 µM. To `CN1CCN(c2ccccc2NC(=O)c2ccc([N+](=O)[O-])o2)CC1` belongs 10 µM; to `O=C(/C=C/c1ccc(Cl)cc1)c1ccc([N+](=O)[O-])o1`, 24.5 µM; to `O=C(Cn1ncc(Cl)c(Cl)c1=O)c1ccc(Cl)cc1`, 26.5 µM. Regarding `CCn1c(=O)c([N+](=O)[O-])c(Cl)c2ccccc21`, the AC50 was 27.9 µM. Take `Cc1ccccc1OCC(=O)N/N=C/c1ccc([N+](=O)[O-])o1`: the AC50 is 26.3 µM. As to `CC1CC2(C)Oc3ccccc3CC2C(C)C1CNCCCN(C)C` (centres undefined), the concentration at half-maximal activity (AC50) is 15.9 µM. `O=C(COC(=O)c1ccccc1C(=O)c1ccc(Cl)c([N+](=O)[O-])c1)NC1CC1`: the AC50 was 15.6 µM.

As for `O=C(CCl)Nc1cccc(S(=O)(=O)N2CCCCCC2)c1`, the concentration at half-maximal activity (AC50) is 17.9 µM.

On to `O=C(N/N=C/c1ccc([N+](=O)[O-])o1)c1cc2ccccc2o1`, for which the concentration at half-maximal activity (AC50) was 10.5 µM. `c1ccc(CSc2nnc(-c3ccco3)n2Cc2ccco2)cc1`: the concentration at half-maximal activity (AC50) is 26.4 µM. On to `COc1ccc(-c2cc3c(nn2)-c2ccccc2C3=O)cc1`, for which the AC50 was 14.5 µM. Consider `Cc1ccc(C(C)C)c(OCc2nn(CC(=O)c3ccc(Cl)cc3)c3[n+]2CCCCC3)c1`, for which the AC50 was 18.4 µM.

Consider `O=C(Nc1ccc(N2CCN(C(=O)c3ccc(Cl)cc3)CC2)cc1)c1ccc([N+](=O)[O-])o1`, for which the half-maximal activity concentration (AC50) is 16.7 µM.

For the compound `CCC(=O)N1CCN(c2ccc(NC(=O)c3ccc([N+](=O)[O-])o3)cc2)CC1`, the AC50 was 12.7 µM. With `CC1CCCCC1NC(=O)/C(C#N)=C/C=C/c1ccccc1[N+](=O)[O-]` (centres undefined), the AC50 is 27.5 µM.

As for `O=C(c1ccccc1)c1cc(Cl)ccc1N1C(=O)C=CC1=O`, the AC50 is 9.06 µM. To `CCN(CC)CCC(=O)N1C/C(=C/c2ccccc2)C(=O)/C(=C\c2ccccc2)C1` belongs 28.3 µM. With `CC1=CC2/C=C(\C)CCC(O)C(O)/C=C/C(=O)C23C(=O)NC(CC(C)C)C3C1C` (centres undefined), the AC50 is 12.6 µM. `Cc1ccc2[nH]c(=O)c(CN(CCCN(C)C)C(=O)Nc3cccc(Cl)c3)cc2c1`: the half-maximal activity concentration (AC50) is 24.9 µM.

Consider `Cc1ccc(NC(=O)CCC(=O)N/N=C/c2ccc([N+](=O)[O-])o2)cc1C`, for which the AC50 is 21.9 µM. Take `COc1ccc(C)c2sc(N(CCN(C)C)C(=O)/C=C/c3cccs3)nc12`: the AC50 was 25.1 µM.

For the compound `CS(=O)(=O)c1ncc(Cl)c(C(=O)Nc2ccc(N3CCOCC3)cc2)n1`, the half-maximal activity concentration (AC50) was 10.7 µM. As for `CCN1CCN(c2ccc(NC(=O)c3ccc([N+](=O)[O-])o3)cc2Cl)CC1`, the concentration at half-maximal activity (AC50) is 14.4 µM. Regarding `Cc1[nH]c2ccccc2c1C(=O)CCl`, the half-maximal activity concentration (AC50) was 27.6 µM. As for `O=C(COc1ccc(Cl)cc1Cl)Nc1ccccn1`, the concentration at half-maximal activity (AC50) is 14.5 µM. On to `CCN(CC)S(=O)(=O)c1ccc(NC(=O)c2cccnc2Cl)c(NC(=O)c2cccnc2Cl)c1`, for which the half-maximal activity concentration (AC50) is 25.6 µM. As for `Cc1ccc(-c2nc(C(=O)NCCCN(C)C)cc3c2[nH]c2ccccc23)cc1`, the AC50 was 31.1 µM.

For `O=C(Nc1ccc(N2CCCC2)c(Cl)c1)c1ccc([N+](=O)[O-])o1`, the AC50 is 11.1 µM. Regarding `COc1cc(CNC2CCCC2)cc(Cl)c1OCc1ccccc1Cl`, the AC50 was 17.6 µM.

Consider `Cc1ccccc1-c1nc(-c2ccccn2)no1`, for which the concentration at half-maximal activity (AC50) was 22.2 µM. On to `Cc1scc(C(=O)N/N=C/c2ccc([N+](=O)[O-])o2)c1C`, for which the concentration at half-maximal activity (AC50) is 15.7 µM. Then `CCOC(=O)c1nnn(-c2ccc([N+](=O)[O-])cc2[N+](=O)[O-])c1C`, with 16 µM; and `O=C(Nc1ccccc1N1CCOCC1)c1ccc([N+](=O)[O-])s1`, with 30.9 µM; and `CC(=O)Nc1ccc(Nc2c3ccccc3nc3ccccc23)cc1`, with 25.2 µM. `CN(C)CCNC(=O)/C(=C/c1ccc(-c2ccc(Cl)cc2Cl)o1)NC(=O)c1ccccc1`: the AC50 is 18 µM.

Turning to `Cc1cc(NC(=O)c2cncc(Br)c2)ccc1NC(=O)c1cc2ccccc2o1`, the concentration at half-maximal activity (AC50) was 17 µM.

In the case of `CCN(CC)CCNC(=O)c1ccc(NC(=O)c2cn(-c3ccccc3)nc2-c2cccs2)cc1`, the half-maximal activity concentration (AC50) is 17.8 µM. On to `O=C(N/N=C/c1ccc([N+](=O)[O-])s1)c1ccccc1Br`, for which the concentration at half-maximal activity (AC50) was 26.9 µM.

On to `COc1ccccc1NC(=O)c1nc(S(=O)(=O)Cc2ccccc2)ncc1Cl`, for which the concentration at half-maximal activity (AC50) is 6.97 µM.

As to `Oc1ccc(CNc2ccccc2F)c2cccnc12`, the AC50 was 28.2 µM. Take `O=C(N/N=C/c1ccc(O)c2ncccc12)c1cccc(Br)c1`: the concentration at half-maximal activity (AC50) is 14.7 µM. For `O=C1Nc2cc(C(=O)NCCN3CCCCCC3)ccc2S/C1=C\c1ccccc1`, the AC50 is 28.4 µM. Regarding `CCc1ccccc1NC(=O)CN(C)C(=O)Cn1ncc(Cl)c(Cl)c1=O`, the AC50 is 11.8 µM. Regarding `N#C/C(=C(/O)c1ccc([N+](=O)[O-])o1)c1nc2ccccc2[nH]1`, the concentration at half-maximal activity (AC50) is 9.62 µM. To `CS(=O)(=O)c1ccc(S(=O)CC(=O)OCc2ccccc2)c([N+](=O)[O-])c1` (centres undefined) belongs 20 µM; to `O=C(Nc1cc(-c2nc3ncccc3o2)ccc1Cl)c1ccc([N+](=O)[O-])o1`, 18.2 µM; to `O=C(COc1ccccc1)N/N=C/c1ccc([N+](=O)[O-])o1`, 18.6 µM.

In the case of `Cc1c(C(=O)Nc2ccc(S(=O)(=O)N(C)C3CCN(C)CC3)cc2)oc2c(Cl)cccc12`, the AC50 was 26.4 µM. To `COc1cc(NC(=O)c2[nH]cnc2C(N)=O)cc(C(=O)Nc2cccc(C(F)(F)F)c2)c1` belongs 11.2 µM. Turning to `CCN1CCN(c2ccc(S(=O)(=O)N3CCCCC3)cc2NC(=O)/C=C/c2cccc(OC)c2OC)CC1`, the AC50 is 29.7 µM. With `O=C(Cn1ncc(Cl)c(Cl)c1=O)NC1CCCCC1`, the AC50 is 24.8 µM. Then `CC(=O)c1c(C)oc2c1C(=O)c1ccccc1C2=O`, with 21.2 µM; and `Cc1ccccc1C(=O)N1CCN(c2ccc(NC(=O)c3ccc([N+](=O)[O-])o3)cc2)CC1`, with 9.64 µM.
